Laboratory results reported in article PMC6066355, “Probing the binding site of novel selective positive allosteric modulators at the M1 muscarinic acetylcholine receptor” (Biochemical Pharmacology, 2018).
Where a chain is given by its changes, count along the chain named.

Assays:
Assay in all cases: IP-One (IP1) accumulation assay, FlpIn CHO cells
Type in all cases: cell-based
[1] = biological target: T1, Y179^ECL2A M1 mAChR (Homo sapiens, UniProt P11229, Y179A)
T1 construct: expressed in transfected cells
T1 sequence (P11229 1-460 Y179A): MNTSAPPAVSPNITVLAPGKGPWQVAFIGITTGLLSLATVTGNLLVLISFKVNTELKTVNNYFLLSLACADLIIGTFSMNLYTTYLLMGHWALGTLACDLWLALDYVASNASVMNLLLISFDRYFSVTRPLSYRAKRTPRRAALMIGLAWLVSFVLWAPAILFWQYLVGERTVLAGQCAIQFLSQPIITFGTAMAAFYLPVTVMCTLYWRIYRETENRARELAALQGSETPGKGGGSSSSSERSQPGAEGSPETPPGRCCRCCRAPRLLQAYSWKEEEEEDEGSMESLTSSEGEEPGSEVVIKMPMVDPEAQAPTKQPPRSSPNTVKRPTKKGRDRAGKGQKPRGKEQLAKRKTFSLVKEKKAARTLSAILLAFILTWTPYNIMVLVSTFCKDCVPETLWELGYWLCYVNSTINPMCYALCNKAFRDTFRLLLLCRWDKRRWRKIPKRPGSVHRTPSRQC
Method: (§1) The IP-One assay kit (Cisbio) was used for the direct quantitative measurement of myo-Inositol 1 phosphate (IP1). Cells were seeded at 25,000 per well into 96-well transparent cell culture plates and incubated overnight at 37 °C. […] Cells were then lysed with IP1 lysis buffer (50 mM HEPES pH 7.0, 15 mM KF, 1.5% V/V Triton-X-100, 3% V/V FBS, 0.2% W/V BSA), and IP1 levels were measured by incubation of cell lysates with FRET reagents (the cryptate-labeled anti-IP1 antibody and the d2-labeled IP1 analogue) for 1 h at 37 °C. […] Signals were expressed as the FRET ratio: F = (fluorescence665 nm/fluorescence590 nm) × 10^4, and normalized to the response to maximal ACh concentration (100 µM).
(§2) (Eq. (2)) was used:(2) Y=Basal+Em-Basal/1+KA+A/τA where Em is the maximal possible system response and Basal is the response in the absence of agonist. [A] denotes the concentration of ligand, and KA represents its equilibrium dissociation constants. τ denotes the intrinsic efficacy of the ligand, which incorporates the total receptor density and the efficiency of stimulus-response coupling.
(§3) Functional interaction studies between orthosteric agonists and allosteric modulators in IP1 assays were analysed using the following operational model of allosterism and agonism (Eq. (3)):(3) E=Basal+Em-BasalAKB+αβB+τBBEC50/EC50KB+B+AKB+αβB+τBBEC50 where Em is the maximal possible system response, and Basal is the response in the absence of agonist. KB is the equilibrium dissociation constant of allosteric ligand, and EC50 is the concentration of orthosteric agonist required to achieve half maximal response. [A] and [B] denote concentrations of orthosteric and allosteric ligands, respectively. α and β denote allosteric effects on orthosteric ligand binding affinity and efficacy, respectively, and τB denotes the efficacy of allosteric ligand. This model assumes that ACh is a full agonist at the receptor in both the absence/presence of modulator and/or there is no efficacy modulation (i.e., β = 1).

[2] = biological target: T2, W400^7.35A M1 mAChR (Homo sapiens, UniProt P11229, W400A)
T2 construct: expressed in transfected cells
T2 sequence (P11229 1-460 W400A): T1 sequence (P11229 1-460 Y179A) with A179Y, W400A
Method: as §1, §2, §3

[3] = biological target: T3, F77^2.56I M1 mAChR (Homo sapiens, UniProt P11229, F77I); conditions: for LogτB (logarithm of functional efficacy of the modulator): corrected for receptor expression levels relative to WT; for τB (functional efficacy of the modulator, antilog in brackets): corrected for receptor expression relative to WT; for Logαβ (logarithm of functional cooperativity between ACh and modulator): pKB constrained to Table 1, β constrained to 1
T3 construct: expressed in transfected cells
T3 sequence (P11229 1-460 F77I): T1 sequence (P11229 1-460 Y179A) with F77I, A179Y
Method: as §1, §2, §3

[4] = biological target: T4, Y82^2.61A M1 mAChR (Homo sapiens, UniProt P11229, Y82A); conditions: for LogτB (logarithm of functional efficacy of the modulator): corrected for receptor expression levels relative to WT; for τB (functional efficacy of the modulator, antilog in brackets): corrected for receptor expression relative to WT; for Logαβ (logarithm of functional cooperativity between ACh and modulator): pKB constrained to Table 1, β constrained to 1
T4 construct: expressed in transfected cells
T4 sequence (P11229 1-460 Y82A): T1 sequence (P11229 1-460 Y179A) with Y82A, A179Y
Method: as §1, §2, §3

Row | Modulation of ACh-stimulated IP1 accumulation [1] | Modulation of ACh-stimulated IP1 accumulation [2] | αβ (functional cooperativity with ACh, antilog in brackets) [3] | LogτB (logarithm of functional efficacy of the modulator) [3] | τB (functional efficacy of the modulator, antilog in brackets) [3] | Logαβ (logarithm of functional cooperativity between ACh and modulator) [3] | αβ (functional cooperativity with ACh, antilog in brackets) [4] | LogτB (logarithm of functional efficacy of the modulator) [4] | τB (functional efficacy of the modulator, antilog in brackets) [4] | Logαβ (logarithm of functional cooperativity between ACh and modulator) [4] | Compound
1 | abolished | abolished | 112 | 1.51 ± 0.07 | 32 | 2.05 ± 0.13 | 46 | 0.95 ± 0.12 | 9 | 1.66 ± 0.12 | Cc1cnc(C(=O)N[C@H]2CCOC[C@@H]2O)cc1Cc1ccc(-c2cscn2)cc1 [PF-06767832, N-((3R,4S)-3-hydroxytetrahydro-2H-pyran-4-yl)-5-methyl-4-(4-(thiazol-4-yl)benzyl)pyridine-2-carboxamide]
2 | abolished | abolished | 63 | 1.52 ± 0.06 | 33 | 1.80 ± 0.15 | 91 | 1.85 ± 0.12 | 71 | 1.96 ± 0.14 | Cn1cc(-c2ccc(COc3ccccc3-c3cc(=O)n(C4CCCCC4O)cn3)cc2)cn1 (stereo not drawn) [MIPS1780, 3-(2-hydroxycyclohexyl)-6-(2-((4-(1-methyl-1H-pyrazol-4-yl)-benzyl)oxy)phenyl)pyrimidin-4(3H)-one]

Row | Compound | Modulation of ACh-stimulated IP1 accumulation [1] | Modulation of ACh-stimulated IP1 accumulation [2] | αβ (functional cooperativity with ACh, antilog in brackets) [3] | LogτB (logarithm of functional efficacy of the modulator) [3] | τB (functional efficacy of the modulator, antilog in brackets) [3] | Logαβ (logarithm of functional cooperativity between ACh and modulator) [3] | αβ (functional cooperativity with ACh, antilog in brackets) [4] | LogτB (logarithm of functional efficacy of the modulator) [4] | τB (functional efficacy of the modulator, antilog in brackets) [4] | Logαβ (logarithm of functional cooperativity between ACh and modulator) [4]
3 | Cn1cc(-c2ccc(Cn3cc(C(=O)N[C@H]4CCCC[C@@H]4O)c4c(F)cc(F)cc43)cn2)cn1 [VU6004256, 4,6-difluoro-N-(1S,2S)-2-hydroxycyclohexyl-1-((6-(1-methyl-1H-pyrazol-4-yl)pyridine-3-yl)methyl)-1H-indole-3-carboxamide] | abolished | abolished | 51 | 1.43 ± 0.06 | 27 | 1.71 ± 0.15 | 19 | 0.50 ± 0.10 | 3 | 1.29 ± 0.10
